This note sets out measurements from ChEMBL document CHEMBL5241105, “Natural Products with Potential for Nonhormonal Male Contraception” (J Nat Prod, 2021).

The nature of data set [1]: Toxicity in rat assessed as median lethal dose. The settings on record: in vivo.
Data set [2] concerns Mus musculus. The data set is described as follows: Antifertility activity in C57BL/6J male mouse assessed as head bend back deformation at 0.8 mg/kg administered via oral gavage for 4 weeks relative to control. The class given is functional.
The species entered for data set [3] is Mus musculus. As to the kind of experiment: Antifertility against male C57BL/6J mouse assessed as infertility. It counts as functional, organism-based.
Data set [4] deals with Mus musculus. The data set is described as follows: Antifertility activity in C57BL/6J male mouse assessed as reduction in forward sperm motility at 0.8 mg/kg administered via oral gavage for 4 weeks relative to control. It counts as functional. Also noted: scale not given: the % may be the effect or the level left.
Data set [5] in a line: Toxicity in mouse assessed as median lethal dose. The settings on record: in vivo.
The species entered for data set [6] is Rattus norvegicus. The data set is described as follows: Antifertility in male rat assessed as reduction in fertility relative to control. It counts as functional. Also noted: scale not given: the % may be the effect or the level left.
Data set [7] is filed under the species Rattus norvegicus. The data set is described as follows: Antifertility activity in albino rat assessed as inhibition of motility (reference value: 30.75 %). It counts as functional. Also noted: scale not given: the % may be the effect or the level left.
A further data set has as its system Oryctolagus cuniculus. As to the kind of experiment: Antifertility activity in rabbit assessed as inhibition of spermatid production at 25 mg/kg, po (reference value: 33.9 %). It counts as functional. Also noted: scale not given: the % may be the effect or the level left.
For another data set, the system named is Meriones unguiculatus. The data set is described as follows: Antifertility activity in gerbils assessed as inhibition of spermatid production at 25 mg/kg, po (reference value: 51.2 %). It counts as functional. Also noted: scale not given: the % may be the effect or the level left.
The next data set has as its system Hamster. As to the kind of experiment: Antifertility activity in hamster assessed as decrease in egg fertilization percentage at 0.70 to 1.05 mM (reference value: 93.6 +/- 3.12 %). Also noted: scale not given: the % may be the effect or the level left. To be noted: dose 0.7-1.05 mM; at 0.7 to 1.05 mM. The class given is functional, Cricetinae.
The subject of data set [8] is Rattus norvegicus. As to the kind of experiment: Antifertility activity in male Sprague-Dawley rat assessed as infertility at 100 microg/kg/day measured for 63 to 70 days relative to control. The class given is functional. The settings on record: dose 100 µg/kg/day; time 63-70 day.
Data set [9] can be described thus: Toxicity in oral dosed rat assessed as median lethal dose. To be noted: in vivo. It counts as organism-based.
The species named for data set [10] is Rattus norvegicus. As to the kind of experiment: Antifertility activity in Sprague-Dawley rat assessed as reduction in cauda epididymal sperm count (reference value: 41.5 +/- 19.3 10^6/ml). It counts as functional.
The species named for data set [11] is Rattus norvegicus. As to the kind of experiment: Antifertility activity in Sprague-Dawley rat assessed as sperm with normal morphology (reference value: 77.2 +/- 16.9%). The class given is functional.
Data set [12] is filed under the species Rattus norvegicus. As to the kind of experiment: Antifertility activity in Sprague-Dawley rat assessed as motile sperm percentage (reference value: 85.7 +/- 16.9%). The class given is functional.
Data set [13] concerns Rattus norvegicus. As to the kind of experiment: Antifertility activity in rat assessed as decrease in fertility at 10 mg/kg administered daily relative to control. Also noted: scale not given: the % may be the effect or the level left. The class given is functional.
Data set [14] is filed under the species Mus musculus. The data set is described as follows: Antifertility activity in mouse assessed as reduction in testicular weight relative to control. It counts as functional. Also noted: scale not given: the % may be the effect or the level left.
The species named for another data set is Homo sapiens. The data set is described as follows: Inhibition of calcium channel (unknown origin) at 2 mg/ml relative to control.
The subject of data set [15] is Rattus norvegicus. As to the kind of experiment: Antifertility activity in male albino rat assessed as reduction in spermatids at 15 mg/kg administered daily relative to control. The class given is functional. Also noted: scale not given: the % may be the effect or the level left.
Data set [16] deals with Rattus norvegicus. The data set is described as follows: Antifertility activity in male albino rat assessed as reduction in sertoli cells at 15 mg/kg administered daily relative to control. Also noted: scale not given: the % may be the effect or the level left. It counts as functional.
The subject of data set [17] is Rattus norvegicus. As to the kind of experiment: Antifertility activity in male albino rat assessed as reduction in number of spermatids at 15 mg/kg administered daily relative to control. It counts as functional. Also noted: scale not given: the % may be the effect or the level left.

One may read the LD50 as the dose expected to kill half of the subjects tested. What is called inhibition is the relative decrease from the control value, in per cent.

`CC(C)[C@]12O[C@H]1[C@@H]1O[C@@]13[C@@]1(C)CCC4=C(COC4=O)[C@@H]1C[C@@H]1O[C@@]13C2=O` [TRIPTONIDE]: the LD50 stood at 980 mg/kg in data set [1] and 300 mg/kg in [5]. The Activity in the data set on Mus musculus [2] and with Mus musculus [4] was 100% each time. Moreover, in the data set filed under Mus musculus [3], the EC50 is 0.9 mg/kg.

For `CC1(C)C[C@H]2C3=CC[C@@H]4[C@@]5(C)CC[C@H](O[C@@H]6O[C@H](CO[C@@H]7OC[C@@H](O)[C@H](O)[C@H]7O[C@@H]7OC[C@@H](O)[C@H](O)[C@H]7O)[C@@H](O)[C@H](O)[C@H]6O)C(C)(C)[C@@H]5CC[C@@]4(C)[C@]3(C)C[C@@H](O)[C@@]23C[C@@H]1OC3=O`, the Activity in the data set filed under Rattus norvegicus [6] is 100%.

Take `CCCCCCCCCCCC1=C(O)C(=O)C=C(O)C1=O` [EMBELIN]: in the data set filed under Rattus norvegicus [7], the Activity was 9.5%.

For `C[C@@H]1C[C@H](O)[C@]2(O)O[C@@H]3C[C@@]4(C=O)[C@@H](CC[C@@H]5[C@@H]4CC[C@]4(C)[C@@H](C6=CC(=O)OC6)CC[C@]54O)C[C@H]3O[C@@H]2O1` [CALOTROPIN], the results for the Activity with Oryctolagus cuniculus and in the data set on Meriones unguiculatus were 94% and 65.2%, respectively.

As for `O=C(/C=C/C=C/c1ccc2c(c1)OCO2)N1CCCCC1` [PIPERINE], the Activity in the data set with Hamster is 3.89%.

For `CC(C)[C@]12O[C@H]1[C@@H]1O[C@]13[C@]1(O[C@H]1C[C@H]1C4=C(CC[C@@]13C)C(=O)OC4)[C@@H]2O` [TRIPTOLIDE], the Activity in the data set on Rattus norvegicus [8] was found to be 100%.

With `C=C1CC/C=C(/C)CC[C@@H]2[C@@H]1CC2(C)C` [CARYOPHYLLENE], in [9], the LD50 was greater than 5000 mg/kg. Also, the Activity in the data set listed under Rattus norvegicus [10] is 20.8 10^6/ml; in the data set listed under Rattus norvegicus [11], 36.2%; in the data set filed under Rattus norvegicus [12] it was 57.4%.

On to `C=C(C)[C@@H]1CC[C@]2(C)CC[C@]3(C)[C@H](CC[C@@H]4[C@@]5(C)CC[C@H](O)C(C)(C)[C@@H]5CC[C@]43C)[C@@H]12` [LUPEOL], for which the Activity with Rattus norvegicus [13] stood at 100%.

`CC1(C)CC[C@]2(C(=O)O)CC[C@]3(C)C(=CC[C@@H]4[C@@]5(C)CC[C@H](O)C(C)(C)[C@@H]5CC[C@]43C)[C@@H]2C1` [OLEANOLIC_ACID]: the Activity in the data set listed under Mus musculus [14] is given as 60%.

On to `Oc1cc(O)c2c(c1)O[C@H](c1ccc(O)c(O)c1)[C@H](O)C2`, for which, in the data set listed under Homo sapiens, the inhibition amounted to 53%.

Turning to `COC(=O)C1=CO[C@@H](O[C@@H]2O[C@H](CO)[C@@H](O)[C@H](O)[C@H]2O)[C@H]2[C@@H]1C=C[C@@]21C=C([C@H](C)O)C(=O)O1` [PLUMIERIDE], the Activity was 59% in the data set on Rattus norvegicus [15], 29% with Rattus norvegicus [16] and 87% in the data set on Rattus norvegicus [17].

Turning to `CC1(C)C[C@H]2C3=CC[C@@H]4[C@@]5(C)CC[C@H](O[C@@H]6O[C@H](CO[C@@H]7OC[C@@H](O)[C@H](O)[C@H]7O[C@@H]7O[C@H](CO)[C@@H](O)[C@H](O)[C@H]7O)[C@@H](O)[C@H](O)[C@H]6O)C(C)(C)[C@@H]5CC[C@@]4(C)[C@]3(C)C[C@@H](O)[C@@]23C[C@@H]1OC3=O`, the Activity in the data set filed under Rattus norvegicus [6] worked out at 100%.

In the case of `CC1(C)C[C@H]2C3=CC[C@@H]4[C@@]5(C)CC[C@H](O[C@@H]6O[C@H](CO[C@@H]7OC[C@@H](O)[C@H](O)[C@H]7O[C@@H]7O[C@H](CO)[C@@H](O)[C@H](O)[C@H]7O)[C@@H](O)[C@H](O)[C@H]6O[C@@H]6O[C@H](CO)[C@@H](O)[C@H](O)[C@H]6O)C(C)(C)[C@@H]5CC[C@@]4(C)[C@]3(C)C[C@@H](O)[C@@]23C[C@@H]1OC3=O`, the Activity in the data set listed under Rattus norvegicus [6] is given as 100%.
